Data from US20220112187A1, “PYRAZOLOPYRIDINE AMINE COMPOUNDS FOR THE TREATMENT OF AUTOIMMUNE DISEASE” (Hoffmann-La Roche Inc., priority 2018, published 2022).

The compounds below were run against T1, human TLR7 (Homo sapiens, UniProt Q9NYK1) (assay: HEK293-Blue-hTLR-7 cells assay (SEAP reporter, R848 stimulation)). Conditions: HEK293-Blue-hTLR7 cells, R848 ligand, 20 hrs incubation.
T1 sequence (Q9NYK1 27-1049): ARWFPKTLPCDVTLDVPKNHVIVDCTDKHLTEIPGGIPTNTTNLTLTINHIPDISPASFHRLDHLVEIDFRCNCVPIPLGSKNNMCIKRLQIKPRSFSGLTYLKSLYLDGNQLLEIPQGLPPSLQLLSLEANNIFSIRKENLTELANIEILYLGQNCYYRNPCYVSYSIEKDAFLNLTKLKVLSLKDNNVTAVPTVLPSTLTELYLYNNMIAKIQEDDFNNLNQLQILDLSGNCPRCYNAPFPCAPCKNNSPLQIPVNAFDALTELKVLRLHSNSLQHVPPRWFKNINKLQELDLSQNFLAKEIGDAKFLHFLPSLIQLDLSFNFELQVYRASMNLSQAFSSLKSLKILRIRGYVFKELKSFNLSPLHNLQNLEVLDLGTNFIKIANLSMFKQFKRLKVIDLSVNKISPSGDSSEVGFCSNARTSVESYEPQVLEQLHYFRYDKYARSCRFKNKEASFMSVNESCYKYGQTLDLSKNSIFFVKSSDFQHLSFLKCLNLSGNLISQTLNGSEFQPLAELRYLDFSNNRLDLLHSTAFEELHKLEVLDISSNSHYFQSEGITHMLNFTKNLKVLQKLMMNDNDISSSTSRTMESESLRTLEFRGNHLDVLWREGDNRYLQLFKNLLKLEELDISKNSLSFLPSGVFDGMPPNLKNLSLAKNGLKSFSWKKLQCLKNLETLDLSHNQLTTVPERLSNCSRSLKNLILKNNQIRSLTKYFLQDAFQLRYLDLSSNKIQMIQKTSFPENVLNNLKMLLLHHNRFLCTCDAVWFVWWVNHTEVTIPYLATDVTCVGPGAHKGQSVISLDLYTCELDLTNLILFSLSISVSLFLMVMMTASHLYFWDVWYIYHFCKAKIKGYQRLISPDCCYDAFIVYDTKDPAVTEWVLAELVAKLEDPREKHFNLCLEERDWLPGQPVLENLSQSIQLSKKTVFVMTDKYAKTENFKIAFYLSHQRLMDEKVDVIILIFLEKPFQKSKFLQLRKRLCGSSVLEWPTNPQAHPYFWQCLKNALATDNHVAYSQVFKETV
Assay type: cell-based
Description: A stable HEK293-Blue-hTLR-7 cell line was purchased from InvivoGen (Cat. #: hkb-htlr7, San Diego, Calif., USA). These cells were originally designed for studying the stimulation of human TLR7 by monitoring the activation of NF-κB. A SEAP (secreted embryonic alkaline phosphatase) reporter gene was placed under the control of the IFN-β minimal promoter fused to five NF-κB and AP-1-binding sites. The SEAP was induced by activating NF-κB and AP-1 via stimulating HEK-Blue hTLR7 cells with TLR7 ligands. Therefore the reporter expression was declined by TLR7 antagonist under the stimulation of a ligand, such as R848 (Resiquimod), for incubation of 20 hrs. The cell culture supernatant SEAP reporter activity was determined using QUANTI-Blue™ kit (Cat. #: rep-qb1, Invivogen, San Diego, Ca, USA) at a wavelength of 640 nm, a detection medium that turns purple or blue in the presence of alkaline phosphatase.
HEK293-Blue-hTLR7 cells were incubated at a density of 250,000˜450,000 cells/mL in a volume of 170 μL in a 96-well plate in Dulbecco's Modified Eagle's medium (DMEM) containing 4.5 g/L glucose, 50 U/mL penicillin, […], […], 2 mM L-glutamine, 10% (v/v) heat-inactivated fetal bovine serum with addition of 20 μL test compound in a serial dilution in the presence of final DMSO at 1% and 10 μL of 20 uM R848 in above DMEM, perform incubation under 37° C. in a CO2 incubator for 20 hrs. Then 20 μL of the supernatant from each well was incubated with 180 μL Quanti-blue substrate solution at 37° C. for 2 hrs and the absorbance was read at 620˜655 nm using a spectrophotometer. The signalling pathway that TLR7 activation leads to downstream NF-κB activation has been widely accepted, and therefore similar reporter assay was modified for evaluating TLR7 antagonist.

Row | SMILES | IC50
1 | C[C@@H]1CN(c2ccc(C#N)n3nccc23)C[C@H](CN2CCC3(CCCN3)CC2)O1 [Example 53, 4-[(2S,6R)-2-(1,8-diazaspiro[4.5]decan-8-ylmethyl)-6-methyl-morpholin-4-yl]pyrazolo[1,5-a]pyridine-7-carbonitrile] | 230 nM
2 | C[C@@H]1CN(c2ccc(C#N)n3nccc23)C[C@H](CN2CCC23CNC3)O1 [Example 55, 4-[(2S,6R)-2-(1,6-diazaspiro[3.3]heptan-1-ylmethyl)-6-methyl-morpholin-4-yl]pyrazolo[1,5-a]pyridine-7-carbonitrile] | 540 nM
3 | C[C@@H]1CN(c2ccc(C#N)n3nccc23)C[C@H](CN2CC3CCNCC32)O1 (stereo partly drawn) [Example 56, 4-[(2S,6R)-2-(3,8-diazabicyclo[4.2.0]octan-8-ylmethyl)-6-methyl-morpholin-4-yl]pyrazolo[1,5-a]pyridine-7-carbonitrile] | 270 nM
4 | C[C@@H]1CN(c2ccc(C#N)n3nccc23)C[C@H](CN2C3CNCC2COC3)O1 [Example 57, 4-[(2R,6S)-2-methyl-6-(3-oxa-7,9-diazabicyclo[3.3.1]nonan-9-ylmethyl)morpholin-4-yl]pyrazolo[1,5-a]pyridine-7-carbonitrile] | 73 nM
5 | C[C@@H]1CN(c2ccc(C#N)n3nccc23)C[C@H](CN2C3COCC2CC(N)C3)O1 (stereo partly drawn) [Example 58, 4-[(2S,6R)-2-[(7-amino-3-oxa-9-azabicyclo[3.3.1]nonan-9-yl)methyl]-6-methyl-morpholin-4-yl]pyrazolo[1,5-a]pyridine-7-carbonitrile] | 90 nM
6 | C[C@@H]1CN(c2ccc(C#N)n3nccc23)C[C@H](CN2CCC3(CC2)CNCCO3)O1 [Example 60, 4-[(2R,6S)-2-methyl-6-(1-oxa-4,9-diazaspiro[5.5]undecan-9-ylmethyl)morpholin-4-yl]pyrazolo[1,5-a]pyridine-7-carbonitrile] | 100 nM
7 | C[C@@H]1CN(c2ccc(C#N)n3nccc23)C[C@H](CN2CCCC3CNCC32)O1 (stereo partly drawn) [Example 61, 4-[(2S,6R)-2-(2,3,4,4a,5,6,7,7a-octahydropyrrolo[3,4-b]pyridin-1-ylmethyl)-6-methyl-morpholin-4-yl]pyrazolo[1,5-a]pyridine-7-carbonitrile] | 460 nM
8 | C[C@@H]1CN(c2ccc(C#N)n3nccc23)C[C@H](CN2CC[C@@H]3CNCC32)O1 (stereo partly drawn) [Example 62, 4-[(2R,6S)-2-methyl-6-[[cis-(3aR,6aR)-3,3a,4,5,6,6a-hexahydro-2H-pyrrolo[3,4-b]pyrrol-1-yl]methyl]morpholin-4-yl]pyrazolo[1,5-a]pyridine-7-carbonitrile] | 710 nM
9 | C[C@@H]1CN(c2ccc(C#N)n3nccc23)C[C@H](CN2CCCC3NCCCC32)O1 (stereo partly drawn) [Example 64, 4-[(2S,6R)-2-(3,4,4a,5,6,7,8,8a-octahydro-2H-1,5-naphthyridin-1-ylmethyl)-6-methyl-morpholin-4-yl]pyrazolo[1,5-a]pyridine-7-carbonitrile] | 250 nM
10 | C[C@@H]1CN(c2ccc(C#N)n3nccc23)C[C@H](CN2C3CCCC2CC(N)C3)O1 (stereo partly drawn) [Example 65, Endo-4-[(2S,6R)-2-[(3-amino-9-azabicyclo[3.3.1]nonan-9-yl)methyl]-6-methyl-morpholin-4-yl]pyrazolo[1,5-a]pyridine-7-carbonitrile] | 460 nM
11 | C[C@@H]1CN(c2ccc(C#N)n3nccc23)C[C@H](CN2C3CCCC2CC(N)C3)O1 (stereo partly drawn) [Example 66, Exo-4-[(2S,6R)-2-[(3-amino-9-azabicyclo[3.3.1]nonan-9-yl)methyl]-6-methyl-morpholin-4-yl]pyrazolo[1,5-a]pyridine-7-carbonitrile] | 490 nM
12 | C[C@@H]1CN(c2ccc(C#N)n3ncc(F)c23)C[C@H](CN2CCCC3(CCNC3)C2)O1 (stereo partly drawn) [Example 68, 3-fluoro-4-[(2S,6R)-2-(2,7-diazaspiro[4.5]decan-7-ylmethyl)-6-methyl-morpholin-4-yl]pyrazolo[1,5-a]pyridine-7-carbonitrile] | 230 nM
13 | C[C@@H]1CN(c2ccc(C#N)n3ncc(F)c23)C[C@H](CN2CCC3(CCCNC3)C2)O1 (stereo partly drawn) [Example 69, 3-fluoro-4-[(2S,6R)-2-(2,9-diazaspiro[4.5]decan-2-ylmethyl)-6-methyl-morpholin-4-yl]pyrazolo[1,5-a]pyridine-7-carbonitrile] | 130 nM
14 | C[C@@H]1CN(c2ccc(C#N)n3nccc23)C[C@H](CN2CCC3NCC3C2)O1 (stereo partly drawn) [Example 70, 4-[(2S,6R)-2-(3,7-diazabicyclo[4.2.0]octan-3-ylmethyl)-6-methyl-morpholin-4-yl]pyrazolo[1,5-a]pyridine-7-carbonitrile] | 230 nM
15 | C[C@@H]1CN(c2ccc(C#N)n3nccc23)C[C@H](CN2CC[C@H](N)[C@H](C)C2)O1 [Example 74, 4-[(2S,6R)-2-[[(3R,4S)-4-amino-3-methyl-1-piperidyl]methyl]-6-methyl-morpholin-4-yl]pyrazolo[1,5-a]pyridine-7-carbonitrile] | 89 nM

The remaining compounds from weak to strong by IC50, led by results:

Row | IC50 | SMILES
16 | 920 nM | C[C@@H]1CN(c2ccc(C#N)n3nccc23)C[C@H](CN2CCC3(CN(C)CCO3)C2)O1 (stereo partly drawn) [Example 76, 4-[(2R,6S)-2-methyl-6-[(9-methyl-6-oxa-2,9-diazaspiro[4.5]decan-2-yl)methyl]morpholin-4-yl]pyrazolo[1,5-a]pyridine-7-carbonitrile]
17 | 450 nM | C[C@@H]1CN(c2ccc(C#N)n3nccc23)C[C@H](CN2CCOC3(CCNCC3)C2)O1 [Example 71, 4-[(2R,6S)-2-methyl-6-(1-oxa-4,9-diazaspiro[5.5]undecan-4-ylmethyl)morpholin-4-yl]pyrazolo[1,5-a]pyridine-7-carbonitrile]
18 | 280 nM | C[C@@H]1CN(c2ccc(C#N)n3ncc(F)c23)C[C@H](CN2CCCC3(CCNCC3)C2)O1 [Example 67, 4-[(2S,6R)-2-(2,9-diazaspiro[5.5]undecan-2-ylmethyl)-6-methyl-morpholin-4-yl]-3-fluoro-pyrazolo[1,5-a]pyridine-7-carbonitrile]
19 | 270 nM | C[C@@H]1CN(c2ccc(C#N)n3nccc23)C[C@H](CN2CCC[C@@H]3NCCC32)O1 (stereo partly drawn) [Example 63, 4-[(2R,6S)-2-methyl-6-[[cis-(3aS,7aS)-1,2,3,3a,5,6,7,7a-octahydropyrrolo[3,2-b]pyridin-4-yl]methyl]morpholin-4-yl]pyrazolo[1,5-a]pyridine-7-carbonitrile]
20 | 190 nM | C[C@@H]1CN(c2ccc(C#N)n3nccc23)C[C@H](CN2CCC(N3CCCC3)CC2)O1 [Example 54, 4-[(2R,6S)-2-methyl-6-[(4-pyrrolidin-1-yl-1-piperidyl)methyl]morpholin-4-yl]pyrazolo[1,5-a]pyridine-7-carbonitrile]
21 | 150 nM | C[C@@H]1CN(c2ccc(C#N)n3nccc23)C[C@H](CN2CCC(N)(c3ccccc3)CC2)O1 [Example 73, 4-[(2S,6R)-2-[(4-amino-4-phenyl-1-piperidyl)methyl]-6-methyl-morpholin-4-yl]pyrazolo[1,5-a]pyridine-7-carbonitrile]
22 | 92 nM | C[C@@H]1CN(c2ccc(C#N)n3nccc23)C[C@H](CN2CC3CNCCC32)O1 (stereo partly drawn) [Example 52, 4-[(2S,6R)-2-(3,7-diazabicyclo[4.2.0]octan-7-ylmethyl)-6-methyl-morpholin-4-yl]pyrazolo[1,5-a]pyridine-7-carbonitrile]
23 | 7 nM | C[C@@H]1CN(c2ccc(C#N)n3nccc23)C[C@H](CN2CCNCC2Cc2ccccc2)O1 (stereo partly drawn) [Example 59, 4-[(2S,6R)-2-[(2-benzylpiperazin-1-yl)methyl]-6-methyl-morpholin-4-yl]pyrazolo[1,5-a]pyridine-7-carbonitrile]
